Among the data in patent US7759349B2, “Control of parasites in animals by the use of imidazo[1,2-b]pyridazine derivatives” (Schering-Plough Animal Health Corporation, priority 2003, dated 2010) are LD99 and IC99 values, retold here.

Molecules are shown by their SMILES. Where only a bound is given, the exact number is not on record here.

The experiment deals with Haemonchus contortus. Kind of experiment: Haemonchus contortus larvacidal assay: NemaTOX H. contortus dose response (larval development, eggs to L3). Type of experiment: cell-based. As to conditions: Table 1, concentration required to inhibit development in 99% of the nematode larvae, eggs on agar to L3 stage (6 days), two-fold dilutions, 0.024 to 50 μg/ml; for IC99: Haemonchus contortus, 144 h, read-out: LD99. On the procedure:
Haemonchus Contortus Larvacidal Assay: NemaTOX H.contortus Dose Response (00/0510)
Effect on larval development is determined in the assay described by Gill et al. (International Journal of Parasitology, 1995, 25, 463-470). Briefly, in this assay nematode eggs were applied to the surface of an agar matrix containing the test compound and then allowed to develop through to the L3, infective stage (6 days)
The wells for each dilution of every compound (from highest to lowest concentration) were inspected to determine the well number corresponding to the lowest concentration at which development was inhibited in 99% of the nematode larvae present. As the well numbers correspond to a two-fold serial dilution of each compound, a titre (dilution factor) is generated as 2^n-1, where n is the well number. By dividing the highest concentration tested by the titre an LD99 value can be obtained, representing the concentration required to inhibit development in 99% of the nematode larvae present.
The compounds supplied as solid and viscous liquids were dissolved in DMSO. Twelve serial 1/2 dilutions in DMSO solution were prepared from the stock solution, each of which was then diluted 1/5 with water. Aliquots (10 μl) of each dilution were transferred to the bioassay plates to give a final concentration range of 0.024 to 50 μg/ml.
In Tables 1, 2 and 3 the Haemonchus contortus LD99 values for compounds in accordance with the present invention are listed, measured in micrograms/mL.

The compound `COc1ccc2nc(-c3ccc(C)cc3)cn2n1` [Compound 1] displayed an LD99 of 3.75 micrograms/mL.
Turning to `CCOc1ccc2nc(-c3ccc(C)cc3)cn2n1` [Compound 2], the LD99 worked out at 0.875 micrograms/mL.
`COc1c(-c2ccccc2)nc2ccc(SC)nn12` [Compound 3] displayed an LD99 of 3 micrograms/mL.
For the compound `CSc1ccc2nc(-c3ccccc3)cn2n1` [Compound 4], the LD99 is given as 2.75 micrograms/mL.
For `c1ccc(Sc2ccc3nc(-c4ccccc4)cn3n2)cc1` [Compound 5], the LD99 amounted to 1.625 micrograms/mL.
Still for that read-out and setting: the figure for `CSc1ccc2nc(-c3ccc4c(c3)OCO4)cn2n1` [Compound 6] is 3.25 micrograms/mL; for `CCCSc1ccc2nc(-c3ccc(C)cc3)cn2n1` [Compound 7] it is 0.938 micrograms/mL.
As for `CCCSc1ccc2nc(-c3ccc4c(c3)OCO4)cn2n1` [Compound 8], the LD99 came out at 0.813 micrograms/mL.
On the same count and under the same terms, the figure for `COc1c(-c2ccc3cc(C)ccc3c2)nc2ccc(SC)nn12` [Compound 9] is over 15.0 micrograms/mL.
The same measure, in the same setting: the figure for `c1ccc(COc2ccc3nc(-c4ccccc4)cn3n2)cc1` [Compound 10] is 5.5 micrograms/mL; for `CCCOc1ccc2nc(-c3ccc(Cl)cc3)cn2n1` [Compound 11] it is 3.75 micrograms/mL; for `CCSc1ccc2nc(-c3ccc(C)cc3)cn2n1` [Compound 12] it is 1.25 micrograms/mL.
Regarding `CCCSc1ccc2nc(-c3cccc(OC)c3)cn2n1` [Compound 13], the LD99 was determined as 0.63 micrograms/mL.
`CCCSc1ccc2nc(-c3cc(OC)c(OC)c(OC)c3)cn2n1` [Compound 14] returned an LD99 of over 15.0 micrograms/mL.
As for `COc1cccc(-c2nc3ccc(SC)nn3c2OC)c1` [Compound 15], the LD99 was 2.75 micrograms/mL.
Still for that read-out and setting: the figure for `CCCOc1ccc2nc(-c3ccc4c(c3)OCO4)cn2n1` [Compound 16] is 0.23 micrograms/mL; for `COc1ccc(-c2nc3ccc(OCc4ccccc4)nn3c2OC)cc1` [Compound 17] it is over 15.0 micrograms/mL.
Compound `COc1ccc(-c2cn3nc(OC)ccc3n2)cc1` [Compound 18] yielded an LD99 of 3 micrograms/mL.
On the same count and under the same terms, the figure for `COc1cccc(Sc2ccc3nc(-c4ccc5c(c4)OCO5)cn3n2)c1` [Compound 19] is over 15.0 micrograms/mL; for `CSCc1c(-c2ccc(Cl)cc2)nc2ccc(SC)nn12` [Compound 20] it is over 15.0 micrograms/mL; for `COc1c(-c2ccccc2)nc2ccc(Sc3ccccc3)nn12` [Compound 21] it is over 15.0 micrograms/mL.
Same read-out and setting: the figure for `CCCSc1ccc2nc(-c3ccccc3)c(OC)n2n1` [Compound 22] is over 15.0 micrograms/mL; for `COc1c(-c2ccccc2)nc2ccc(OCc3ccccc3)nn12` [Compound 23] it is over 15.0 micrograms/mL.
`CCSc1ccc2nc(-c3ccccc3)c(OC)n2n1` [Compound 24]: the LD99 came to 7.5 micrograms/mL.
`COCCOc1ccc2nc(-c3ccc4c(c3)OCO4)cn2n1` [Compound 25]: the LD99 turned out to be 1.25 micrograms/mL.
Compound `CCCOc1ccc2nc(-c3ccc(OC)c(OC)c3)cn2n1` [Compound 26] registered an LD99 of 1.3 micrograms/mL.
`CCCOc1ccc2nc(-c3ccc(OCC)cc3)cn2n1` [Compound 27] returned an LD99 of 0.1 micrograms/mL.
For `CCCOc1ccc2nc(-c3cccc(OC)c3)cn2n1` [Compound 28], the LD99 is given as 0.23 micrograms/mL.
Take `CCCSc1ccc2nc(-c3ccc(OC)c(OC)c3)cn2n1` [Compound 29]: the LD99 was determined as 1.9 micrograms/mL.
Regarding `CCCSc1ccc2nc(-c3ccc(OCC)cc3)cn2n1` [Compound 30], the LD99 is reported as 0.38 micrograms/mL.
`CCOc1ccc(-c2cn3nc(OC4CCCC4)ccc3n2)cc1` [Compound 31] displayed an LD99 of 0.875 micrograms/mL.
The same measure, in the same setting: the figure for `CCCOc1nn2cc(-c3ccc(OCC)cc3)nc2cc1C` [Compound 32] is 0.188 micrograms/mL; for `CCCOc1ccc2nc(-c3ccc(Cl)s3)cn2n1` [Compound 34] it is 0.188 micrograms/mL.
On the same count and under the same terms, the figure for `CCOc1ccc(-c2cn3nc(-c4ccccc4)ccc3n2)cc1` [Compound 35] is 10 micrograms/mL; for `COc1ccc(-c2nc3ccc(-c4ccccc4)nn3c2C)cc1` [Compound 36] it is 0.8123 micrograms/mL.
Still for that read-out and setting: the figure for `CCCOc1ccc2nc(-c3ccc(OC)cc3)c(C)n2n1` [Compound 37] is 0.344 micrograms/mL; for `CCCOc1ccc2nc(-c3ccc(OC)c(Br)c3)c(C)n2n1` [Compound 38] it is 3.75 micrograms/mL.
On to `CCOc1ccc(-c2nc3ccc(OCC4CC4)nn3c2Br)cc1` [Compound 39], for which the LD99 was 2.75 micrograms/mL.
`CCCOc1ccc2nc(-c3ccc(OCC)cc3)c(Br)n2n1` [Compound 40] registered an LD99 of 0.344 micrograms/mL.
With `CCOc1ccc(-c2cn3nc(SCc4ccc(OC)cc4)ccc3n2)cc1` [Compound 41], the LD99 worked out at 11 micrograms/mL.
As for `CCOc1ccc(-c2cn3nc(SCc4ccc(Cl)cc4)ccc3n2)cc1` [Compound 42], the LD99 amounted to 3 micrograms/mL.
As to `c1cc2c(cc1-c1cn3nc(OCC4CC4)ccc3n1)OCO2` [Compound 43, 2-(3,4-Methylendioxyphenyl)-6-cyclopropylmethoxyimidazo[1,2-b]pyridazine], the IC99 stood at 0.117 µg/mL.
In the case of `Cc1c(-c2cccs2)nc2ccc(OCC3CC3)nn12` [Compound 44], the IC99 was 0.375 µg/mL.
Turning to `Cc1c(-c2cccs2)nc2ccc(Br)nn12` [Compound 45], the LD99 was 6 micrograms/mL.
Compound `CCCCCCSc1ccc2nc(-c3cccs3)c(C)n2n1` [Compound 46] came in with an LD99 of 6.5 micrograms/mL.
The compound `COc1ccc(CSc2ccc3nc(-c4cccs4)c(C)n3n2)cc1` [Compound 47] had an LD99 of 7.5 micrograms/mL.
The compound `CCCSc1ccc2nc(-c3ccc(OCC)cc3)c(Cl)n2n1` [Compound 48] came in with an LD99 of 6 micrograms/mL.
Consider `CCOc1ccc(-c2cn3nc(SCC(C)C)ccc3n2)cc1` [Compound 49], for which the LD99 is listed as 1.75 micrograms/mL.
On the same count and under the same terms, the figure for `CCOc1ccc(-c2cn3nc(SC(C)C)ccc3n2)cc1` [Compound 50] is 0.875 micrograms/mL; for `CCOc1ccc(-c2cn3nc(OC(C)C)ccc3n2)cc1` [Compound 51] it is 1.875 micrograms/mL.
`COc1ccc(-c2cn3nc(SC(C)C)ccc3n2)cc1` [Compound 52] yielded an LD99 of 0.938 micrograms/mL.
For `CCCCOc1ccc2nc(-c3ccc(OCCC)cc3)cn2n1` [Compound 53], the LD99 turned out to be 0.344 micrograms/mL.
As to `CCCOc1ccc2nc(-c3ccc(F)cc3F)cn2n1` [Compound 54], the LD99 came out at 0.219 micrograms/mL.
`CCCOc1ccc2nc(-c3ccc(F)cc3)cn2n1` [Compound 55] came in with an LD99 of 0.813 micrograms/mL.
Same read-out and setting: the figure for `CCc1ccc(-c2cn3nc(OCC4CC4)ccc3n2)cc1` [Compound 56] is 0.0781 micrograms/mL.
Consider `COc1ccc(-c2cn3nc(SCC(C)C)ccc3n2)cc1OC` [Compound 57], for which the LD99 was determined as 1.375 micrograms/mL.
Compound `COc1ccc(-c2cn3nc(OC(C)C)ccc3n2)cc1OC` [Compound 58] had an LD99 of 15 micrograms/mL.
Same read-out and setting: the figure for `CCCCOc1ccc2nc(-c3ccc(OCCC)cc3)c(CN(C)C)n2n1` [Compound 59] is 14 micrograms/mL.
